Assays:
[1] = The half-life period was determined; assay type: ADME
[2] = molecular target: T1, Human immunodeficiency virus type 1 protease (Human immunodeficiency virus 1, UniProt Q72874); test: Compound was evaluated for its binding affinity against HIV-1 protease
[3] = molecular target: T1, Human immunodeficiency virus type 1 protease; test: Compound was evaluated for its inhibitory activity against HIV-1 protease

Compound | half-life [1] | Ki [2] | IC50 [3]
NC(=O)[C@H](Cc1ccccc1)NP(=O)(O)C(Cc1ccccc1)NC(=O)C(F)(F)F (stereo not given in full) | 30 h | 45 µM | 105 µM
COP(=O)(C(Cc1ccccc1)NC(=O)C(F)(F)F)N1CCC[C@H]1C(N)=O (stereo not given in full) |  | 44 µM | 103 µM
NC(=O)[C@@H]1CCCN1P(=O)(O)C(Cc1ccccc1)NC(=O)C(F)(F)F (stereo not given in full) | 5 h | 52 µM | 121 µM
COP(=O)(N[C@@H](Cc1ccccc1)C(N)=O)C(Cc1ccccc1)NC(=O)C(F)(F)F (stereo not given in full) |  | 80 µM | 184 µM

Reference: ChEMBL document CHEMBL1152026, “Phosphonamidates and phosphonamidate esters as HIV-1 protease inhibitors” (Bioorg Med Chem Lett, 1991)
